Experiments:
Assay type in all cases: in vivo
anesthetized sheep = assay: Bronchoconstriction produced by sodium arachidonate aerosol in anesthetized ventilated sheep; conditions: aerosolized, dose 1.5 grams/50 ml typically diluted 1:3
Protocol: In anesthetized sheep with either normal lung mechanics or during bronchoconstriction, the effects of phasic aerosol delivery on the amount of radioisotope deposited in the lungs and the amount expired (as collected in a waste filter) were tested. Results were compared to those in which aerosol was delivered continuously. Sheep were anesthetized and ventilated with oxygen-enriched air at a tidal volume of 500 ml and a respiratory rate of 10 breaths per minute. The ventilator setup is illustrated schematically in FIG. 15.
FIGS. 16-18 also illustrate effects of bronchoconstriction produced by an aerosol of sodium arachidonate on aerosol delivery efficiency. These studies were conducted after the control studies discussed above. Arachidonic acid was converted to sodium arachidonate by the procedure of Ogletree and Brigham and was aerosolized (Dose=1.5 grams/50 ml typically diluted 1:3) to cause marked bronchoconstriction and/or decreased lung compliance and thus elevated airway pressure. […] During bronchoconstriction, ^99mTc-DTPA was administered by phasic aerosol delivery while maintaining the arachidonate delivery. […]

[1] = Wasted fraction of continuously delivered radioaerosol in ventilated sheep, expiratory filter gamma counting; conditions: continuous zero flow nebulizer
Protocol: This study was designed to compare the wasted fraction of ^99mTc-DTPA aerosols delivered continuously with the zero flow nebulizer to control sheep (n=6) and sheep administered 2 mg/kg E. coli endotoxin. This dose of endotoxin in sheep causes a period of intense bronchoconstriction and pulmonary vasoconstriction followed by pulmonary edema. The experimental setup was similar to that illustrated in FIG. 15, except that no scintillation probe was used and isotope waste was measured by counting radioactivity in a filter placed in the expiratory portion of the ventilator tubing using a gamma energy counter. The wasted fraction of aerosol was more than 3-fold higher during endotoxin-induced lung injury with endotoxin [3,836,141 (n=1)] than when the lungs were normal [1,289,102±125,326 (n=6)].

[2] = Aerosol deposition and clearance of radiotracers in lungs of ventilated sheep (Hawkeye imaging, gamma counting of lung tissue); conditions: Hi-Flo MiniHeart nebulizer
Protocol: The present study was designed to assess aerosol deposition patterns using jet nebulizers and the device of the present disclosure. These studies were conducted in the Vanderbilt University Medical Center Hawkeye scanning facility. Each sheep was surgically instrumented with catheters in a jugular vein and a carotid artery. After allowing several days for the sheep to recuperate from surgery, they were anesthetized, intubated, ventilated, and placed on the GE Hawkeye scanner bed. […] The contents of the syringe were then added to a nebulizer and aerosols generated for 30 minutes during ventilator-assisted inspiration. Planar images were taken every two minutes with anterior and posterior cameras. Nebulization was then halted, and clearance of the radiotracers over two hours was measured with Hawkeye in an identical manner. At the end of the radioisotope clearance image acquisition, a rotational CT image was taken of the sheep thoracic cavity to delineate lung boundaries and chest anatomy. The sheep was sacrificed and its lungs excised. Lungs were placed on grid paper and diced with a rectangular cutting grid. Lung tissue was placed in plastic vials and gamma energy emissions of each isotope measured with a gamma counter.

Compound	hypoxemia during bronchoconstriction (anesthetized sheep)	airway pressure during bronchoconstriction (anesthetized sheep; within 20 minutes)	wasted fraction, endotoxin-induced lung injury versus normal lungs [1]	wasted fraction of aerosol (radioactivity in expiratory filter) ([1]; endotoxin-induced lung injury, 2 mg/kg E. coli endotoxin, n=1)	wasted fraction of aerosol (radioactivity in expiratory filter) ([1]; normal lungs, control sheep, n=6)	tracer remaining in lungs after halting aerosol generation ([2]; 2 hours after halting aerosol generation)	radioisotope distribution in lung tissue ([2]; gamma counting of lung tissue samples)
CCCCC/C=C\C/C=C\C/C=C\C/C=C\CCCC(=O)[O-].[Na+] [sodium arachidonate]	marked hypoxemia	48-50 cm H2O					
O=C([O-])CN(CCN(CC(=O)[O-])CC(=O)[O-])CCN(CC(=O)[O-])CC(=O)[O-].[99Tc+4] [99mTc-DTPA]			more than 3 fold	3,836,141	1,289,102±125,326	much of the tracer remained	higher dorsal (towards back) and caudal (towards tail) deposition

Source: patent US20070157931A1, “System and method for optimized delivery of an aerosol to the respiratory tract” (priority 2005, published 2007)
